Results as given in patent US9738610B2, “Indazole derivatives and uses thereof” (Whitehead Institute for Biomedical Research, priority 2012, dated 2017).
Read-outs that look alike come from different tables or passages of the source.

Test system: C. albicans CaCi-2
Test: CaCi-2 growth inhibition in the presence of 8 μg/ml fluconazole (Alamar Blue)
Format: cell-based, Candida albicans
Conditions: Candida albicans

**Q.** How did the IC50 (CACI2, read-out: CaCi-2 IC50 with 8 μg/ml fluconazole) turn out when `COC(=O)Cn1nc(-c2cccc(OC)c2)c2ccccc21` [Compound I-4, methyl 2-(3-(3-methoxyphenyl)-1H-indazol-1-yl)acetate] was run?
**A.** 440 nM

**Q.** And the IC50 (CACI2, read-out: CaCi-2 growth inhibition IC50 (nM))?
**A.** 440 nM
